Literature values in patent US5827842A, “14α, 17α-C2 -bridged norprogesterone derivatives” (Schering Aktiengesellschaft, priority 1994, dated 1998).

Test system: endometrium

CC(=O)[C@]12CC[C@@]3(CC1)[C@@H]1CCC4=CC(=O)CC[C@@H]4[C@H]1CC[C@]23C [14,17-Ethano-19-norpregn-4-ene-3,20-dione]
factor between subcutaneous and peroral action (J. Med. Chem. 16, 270 (1973)): over 20
gestagenic action in the Clauberg Test after oral administration (oral administration): only a slight effect
gestagenic action in the Clauberg Test after subcutaneous administration (subcutaneous administration): good effect
